Data as given in patent publication US20260285850A1, “SUBSTITUTED OXAZOLIDINONES AND IMIDAZOLINONES AS HERBICIDES” (FMC CORPORATION, priority 2023, published 2026).

Columns and labels:
Type in all cases: in vivo
[1] = test system: barnyardgrass (Echinochloa crusgalli); assay: Test B flooded paddy test, visual plant response rating 0-100; conditions: 250 g ai/ha, Flood, applied to paddy water, evaluated after 13 days
How it was run: (§1)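 Visual scores versus untreated controls were recorded 13 days after treatment of greenhouse-held plants. At the 2-leaf stage, pots were flooded 3 cm above the soil surface and compounds added straight to the water.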

[2] = test system: ducksalad (Heteranthera limosa); assay: as above; conditions: 250 g ai/ha, Flood, applied to paddy water, evaluated after 13 days
How it was run: as §1

rice (Oryza sativa) = assay: as above; conditions: 250 g ai/ha, Flood, applied to paddy water, evaluated after 13 days
How it was run: as §1

[3] = test system: sedge, umbrella (small-flower umbrella sedge, Cyperus difformis); assay: as above; conditions: 250 g ai/ha, Flood, applied to paddy water, evaluated after 13 days
How it was run: as §1

[4] = test system: green foxtail (Setaria viridis); assay: Test A postemergence application, visual injury rating 0-100; conditions: 10 days
How it was run: (§2)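 Plants were grown in a loam soil-sand blend and treated with test chemical in a non-phytotoxic solvent mixture containing surfactant, either sprayed on soil preemergence or applied postemergence to 2-10 cm plants. After 10 days in a greenhouse, injury was scored visually against untreated controls, 0 meaning no effect and 100 complete control.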

[5] = test system: ryegrass, Italian (italian ryegrass, Lolium multiflorum); assay: as above; conditions: 10 days
How it was run: as §2

soybean (Glycine max) [6] = assay: as above; conditions: 10 days
How it was run: as §2

[7] = test system: palmer (palmer amaranth, palmer pigweed, Amaranthus palmeri); assay: as above; conditions: 10 days
How it was run: as §2

[8] = test system: wheat (Triticum aestivum); assay: as above; conditions: 10 days
How it was run: as §2

kochia (Bassia scoparia) [9] = assay: as above; conditions: 10 days
How it was run: as §2

[10] = test system: horseweed (Erigeron canadensis); assay: as above; conditions: 10 days
How it was run: as §2

corn (Zea mays) [11] = assay: as above; conditions: 10 days
How it was run: as §2

[12] = test system: ragweed (common ragweed, Ambrosia artemisiifolia); assay: as above; conditions: 10 days
How it was run: as §2

[13] = test system: barnyardgrass (Echinochloa crus-galli); assay: as above; conditions: 10 days
How it was run: as §2

[14] = test system: galium (catchweed bedstraw, Galium aparine); assay: as above; conditions: 10 days
How it was run: as §2

[15] = test system: blackgrass (Alopecurus myosuroides); assay: as above; conditions: 10 days
How it was run: as §2

[16] = test system: oat, wild (wild oat, Avena fatua); assay: as above; conditions: 10 days
How it was run: as §2

[17] = test system: green foxtail (Setaria viridis); assay: Test A preemergence soil spray, visual injury rating 0-100; conditions: 10 days, 0 = no effect, 100 = complete control
How it was run: as §2

[18] = test system: ryegrass, Italian (italian ryegrass, Lolium multiflorum); assay: as above; conditions: 10 days, 0 = no effect, 100 = complete control
How it was run: as §2

soybean (Glycine max) [19] = assay: as above; conditions: 10 days, 0 = no effect, 100 = complete control
How it was run: as §2

[20] = test system: palmer (palmer amaranth, palmer pigweed, Amaranthus palmeri); assay: as above; conditions: 10 days, 0 = no effect, 100 = complete control
How it was run: as §2

[21] = test system: wheat (Triticum aestivum); assay: as above; conditions: 10 days, 0 = no effect, 100 = complete control
How it was run: as §2

kochia (Bassia scoparia) [22] = assay: as above; conditions: 10 days, 0 = no effect, 100 = complete control
How it was run: as §2

corn (Zea mays) [23] = assay: as above; conditions: 10 days, 0 = no effect, 100 = complete control
How it was run: as §2

[24] = test system: ragweed (common ragweed, Ambrosia artemisiifolia); assay: as above; conditions: 10 days, 0 = no effect, 100 = complete control
How it was run: as §2

[25] = test system: barnyardgrass (Echinochloa crus-galli); assay: as above; conditions: 10 days, 0 = no effect, 100 = complete control
How it was run: as §2

[26] = test system: blackgrass (Alopecurus myosuroides); assay: as above; conditions: 10 days, 0 = no effect, 100 = complete control
How it was run: as §2

[27] = test system: oat, wild (wild oat, Avena fatua); assay: as above; conditions: 10 days, 0 = no effect, 100 = complete control
How it was run: as §2

[28] = 31 g ai/ha, postemergence, 0 = no effect, 100 = complete control
[29] = Postemergence, 125 g ai/ha, 0 is no effect, 100 is complete control

Compound: CSCCOC(=O)C1=CCC(NC(=O)C2(C)CN(c3cc(F)cc(F)c3)C(=O)O2)C1 (stereo not shown) [Compound 23]
- Plant response rating, Barnyardgrass (0 to 100 scale, 0 is no effect and 100 is complete control) [1]: 95
- Plant response rating, Ducksalad (0 to 100 scale, 0 is no effect and 100 is complete control) [2]: 70
- Plant response rating, Rice (0 to 100 scale, 0 is no effect and 100 is complete control) (rice (Oryza sativa)): 85
- Plant response rating, Sedge, Umbrella (0 to 100 scale, 0 is no effect and 100 is complete control) [3]: 86
- Foxtail, Green plant response rating (0-100) [4, 28]: 90
- Foxtail, Green plant response rating (0 to 100 scale) [4, 29]: 90
- Ryegrass, Italian plant response rating (0-100) [5, 28]: 80
- Ryegrass, Italian plant response rating (0 to 100 scale) [5, 29]: 70
- Soybean plant response rating (0-100) (soybean (Glycine max) [6]; [28]): 80
- Soybean plant response rating (0 to 100 scale) (soybean (Glycine max) [6]; [29]): 90
- Amaranth, Palmer plant response rating (0-100) [7, 28]: 80
- Amaranth, Palmer / Pigweed, Palmer plant response rating (0 to 100 scale) [7, 29]: 90
- Wheat plant response rating (0-100) [8, 28]: 90
- Wheat plant response rating (0 to 100 scale) [8, 29]: 90
- Kochia plant response rating (0-100) (kochia (Bassia scoparia) [9]; [28]): 80
- Kochia plant response rating (0 to 100 scale) (kochia (Bassia scoparia) [9]; [29]): 90
- Horseweed plant response rating (0-100) [10, 28]: 80
- Horseweed plant response rating (0 to 100 scale) [10, 29]: 90
- Corn plant response rating (0-100) (corn (Zea mays) [11]; [28]): 100
- Corn plant response rating (0 to 100 scale) (corn (Zea mays) [11]; [29]): 100
- Ragweed plant response rating (0-100) [12, 28]: 60
- Ragweed plant response rating (0 to 100 scale) [12, 29]: 70
- Barnyardgrass plant response rating (0-100) [13, 28]: 100
- Barnyardgrass plant response rating (0 to 100 scale) [13, 29]: 100
- Galium plant response rating (0-100) [14, 28]: 80
- Galium plant response rating (0 to 100 scale) [14, 29]: 90
- Blackgrass plant response rating (0-100) [15, 28]: 90
- Blackgrass plant response rating (0 to 100 scale) [15, 29]: 100
- Oat, Wild plant response rating (0-100) [16, 28]: 90
- Oat, Wild plant response rating (0 to 100 scale) [16, 29]: 100
- Foxtail, Green plant response rating (0-100) ([17]; 31 g ai/ha): 70
- Foxtail, Green plant response rating (0 to 100 scale) ([17]; 125 g ai/ha): 100
- Ryegrass, Italian plant response rating (0-100) ([18]; 31 g ai/ha): 80
- Ryegrass, Italian plant response rating (0 to 100 scale) ([18]; 125 g ai/ha): 90
- Soybean plant response rating (0-100) (soybean (Glycine max) [19]; 31 g ai/ha): 10
- Soybean plant response rating (0 to 100 scale) (soybean (Glycine max) [19]; 125 g ai/ha): 70
- Amaranth, Palmer plant response rating (0-100) ([20]; 31 g ai/ha): 30
- Amaranth, Palmer plant response rating (0 to 100 scale) ([20]; 125 g ai/ha): 90
- Wheat plant response rating (0-100) ([21]; 31 g ai/ha): 80
- Wheat plant response rating (0 to 100 scale) ([21]; 125 g ai/ha): 90
- Kochia plant response rating (0-100) (kochia (Bassia scoparia) [22]; 31 g ai/ha): 0
- Kochia plant response rating (0 to 100 scale) (kochia (Bassia scoparia) [22]; 125 g ai/ha): 90
- Corn plant response rating (0-100) (corn (Zea mays) [23]; 31 g ai/ha): 30
- Corn plant response rating (0 to 100 scale) (corn (Zea mays) [23]; 125 g ai/ha): 80
- Ragweed plant response rating (0-100) ([24]; 31 g ai/ha): 0
- Ragweed plant response rating (0 to 100 scale) ([24]; 125 g ai/ha): 70
- Barnyardgrass plant response rating (0-100) ([25]; 31 g ai/ha): 60
- Barnyardgrass plant response rating (0 to 100 scale) ([25]; 125 g ai/ha): 100
- Blackgrass plant response rating (0-100) ([26]; 31 g ai/ha): 80
- Blackgrass plant response rating (0 to 100 scale) ([26]; 125 g ai/ha): 90
- Oat, Wild plant response rating (0-100) ([27]; 31 g ai/ha): 20
- Oat, Wild plant response rating (0 to 100 scale) ([27]; 125 g ai/ha): 60
